Assay results: patent US8946439B2, “Amide compounds, compositions and uses thereof” (Evotec AG, priority 2008, dated 2015)
Where two headings read alike, the source gives them in different places.

Key:
hP2X2/3H = target: T1, hP2X2/3H (Homo sapiens, UniProt P56373+Q9UBL9); assay: Calcium uptake assay (P2X antagonist assay), P2X2/3 heteromer; format: cell-based; conditions: hP2X2/3H
T1 construct: expressed in transfected cells; host or cells: e.g. HEK293 or 1321N1
T1 sequence (Q9UBL9 1-471): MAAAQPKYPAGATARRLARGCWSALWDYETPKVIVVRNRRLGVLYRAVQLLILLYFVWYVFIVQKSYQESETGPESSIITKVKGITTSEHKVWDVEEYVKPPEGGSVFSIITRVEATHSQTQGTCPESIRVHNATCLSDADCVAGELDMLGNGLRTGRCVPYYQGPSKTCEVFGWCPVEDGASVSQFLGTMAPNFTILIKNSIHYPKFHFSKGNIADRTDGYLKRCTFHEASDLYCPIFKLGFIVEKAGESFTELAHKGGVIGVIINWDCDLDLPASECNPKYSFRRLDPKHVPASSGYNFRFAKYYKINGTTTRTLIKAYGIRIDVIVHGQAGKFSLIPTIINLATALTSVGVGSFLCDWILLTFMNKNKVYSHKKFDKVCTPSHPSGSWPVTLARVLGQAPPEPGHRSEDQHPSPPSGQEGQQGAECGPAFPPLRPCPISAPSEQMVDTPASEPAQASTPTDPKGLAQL
T1 sequence (P56373 1-397): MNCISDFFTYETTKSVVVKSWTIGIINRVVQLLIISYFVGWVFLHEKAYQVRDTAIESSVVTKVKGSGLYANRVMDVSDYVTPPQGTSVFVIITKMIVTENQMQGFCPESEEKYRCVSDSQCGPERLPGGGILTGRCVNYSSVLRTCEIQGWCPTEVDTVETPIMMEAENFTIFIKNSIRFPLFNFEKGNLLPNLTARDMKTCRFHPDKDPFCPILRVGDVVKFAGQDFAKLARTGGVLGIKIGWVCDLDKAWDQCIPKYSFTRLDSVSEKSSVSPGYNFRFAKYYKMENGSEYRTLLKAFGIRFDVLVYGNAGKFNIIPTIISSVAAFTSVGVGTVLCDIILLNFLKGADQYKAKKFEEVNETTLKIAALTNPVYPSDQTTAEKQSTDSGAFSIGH
Excerpt: (§1) The human P2X2/3 chimera clone is created as described by Neelands et al, and then cloned into an expression vector as above. Receptors are expressed in cells (e.g., HEK293 or 1321N1 (obtained from the ECACC)) via transient transfection using standard lipid mediated transfection, or by creation of stable transfectants for each receptor. For expression of the P2X2/3 heteromeric receptor, the P2X3 expression vector is stably transfected into a cell line already stably expressing P2X2. P2X2/3 heteromer function is isolated using pharmacological methods. Cell lines are maintained in DMEM+5% Glutamax, the appropriate level of selective antibiotic, and 10% heat inactivated FBS.
(§2) Functional activity of compounds at the P2X receptor is determined by measuring their ability to inhibit agonist-induced calcium influx. Compounds are tested for antagonist activity against the P2X2/3 chimera, the P2X3 homomer, or the P2X2/3 heteromer. At the start of each screening day, the agonist EC50 is determined. Compound % inhibition or IC50s are subsequently determined using a predetermined agonist concentration (EC50-90 depending on cell line) as a stimulus. The agonists used are αβMeATP, ATP, or other ATP analogs. Compounds may be tested at concentrations ranging from 1 pM to 10 μM.
(§3) To test for antagonist activity, cells expressing the appropriate receptor are seeded onto 96 or 384 well plates 18-24 hours prior to assay. […] Plates are incubated at 37° C. and then equilibrated at room temperature. Antagonism of agonist-induced calcium influx is measured using a fluorescent imaging plate reader (e.g. FLIPR^TETRA, Molecular Devices, Sunnyvale, Calif.). The assay comprises two stages: a pre-treatment phase followed by a treatment phase. Compounds may be tested as follows: For the pre-treatment phase, 50 μL of 3× concentration of test compound in HBSS is added to cells containing […], of dye loading media to achieve a final concentration of 1× test compound. For the treatment phase, at a set interval after pre-treatment (1-30 minutes), 50 μL of 1× test compound plus 4× agonist solution is added, resulting in a final concentration of 1× compound and 1× agonist. […] Responses are measured as (peak fluorescence after agonist addition) minus (baseline fluorescence prior to treatment). Percent inhibition is calculated as follows:
(§4) [formula] IC50 values are determined by analyzing dose response data in a 4 parameter logistic fit using GraphPad Prizm.

hP2X3 = target: T2, hP2X3 (Homo sapiens, UniProt P56373); assay: Calcium uptake assay (P2X antagonist assay), P2X3 homomer; format: cell-based; conditions: hP2X3
T2 construct: expressed in transfected cells; host or cells: e.g. HEK293 or 1321N1
T2 sequence (P56373 1-397): T1 sequence (P56373 1-397)
Excerpt: as §1, §2, §3, §4

[1] = calcium uptake assay, read-out: IC50 hP2X2/3H (nM), Ca Influx
[2] = calcium uptake assay, read-out: IC50 hP2X3 (nM), Ca Influx
[3] = Ca influx (calcium uptake assay), read-out: IC50 hP2X2/3H
[4] = Ca influx (calcium uptake assay), read-out: IC50 hP2X3

Row | SMILES | IC50 (hP2X2/3H; [1]) [nM] | IC50 (hP2X3; [2]) [nM] | IC50 (hP2X2/3H; [3]) [nM] | IC50 (hP2X3; [4]) [nM]
1 | Cc1ccc(CNC(=O)c2cc(-c3ccc(Cl)c(F)c3)cc(S(C)(=O)=O)c2)cn1 [Compound 136] | > 1000 | 501 to 1000 |  | 
2 | Cc1ccc(-c2cc(C(=O)NCc3ccc(C(F)(F)F)nc3)cc(C(=O)N3CCCC3)c2)c(C#N)c1 [Compound 62, 2′-Cyano-4′-methyl-5-(pyrrolidine-1-carbonyl)-N-((6-(trifluoromethyl)pyridin-3-yl)methyl)biphenyl-3-carboxamide] | 100 to 500 | < 100 |  | 
3 | Cc1ccc(-c2cc(C(=O)NCc3ccc(C(F)(F)F)nc3)cc(C(=O)N3CC(O)C3)c2)c(C#N)c1 [Compound 64] | < 100 | < 100 |  | 
4 | Cc1ccc(-c2cc(C(=O)N[C@H](C)c3ccc(C)nc3)cc(S(=O)(=O)C(C)C)c2)cc1 [Compound 197] | < 100 | < 100 |  | 
5 | Cc1ccc(-c2cc(C(=O)NC(C)c3cnccn3)cc(C(=O)N(C)CC(C)C)c2)cc1 (stereo not shown) [Compound 8, N3-Isobutyl-N3,4′-dimethyl-N-5-(1-(pyrazin-2-yl)ethyl)biphenyl-3,5-dicarboxamide] | 100 to 500 | < 100 |  | 
6 | Cc1ccc(-c2cc(C(=O)NCc3ncc(Cl)cc3Cl)cc(C(=O)N3CCCC3)c2)cc1 [Compound 81] | < 100 | < 100 |  | 
7 | Cc1ccc(-c2cc(OCCO)cc(C(=O)N[C@H](C)c3ccc(C)nc3)c2)cc1 [Compound 302] |  |  | < 100 | < 100
8 | Cc1ccc(-c2cc(C(=O)NCc3ccc(C(F)(F)F)c(F)c3)cc(C(=O)N3CCCC3)c2)nc1 [Compound 145] | 100 to 500 | 100 to 500 |  | 
9 | COc1ccc([C@@H](CO)NC(=O)c2cc(-c3ccc(C)cc3)cc(S(C)(=O)=O)c2)cn1 [Compound 206, (S)—N-(2-Hydroxy-1-(6-methoxypyridin-3-yl)ethyl)-4′-methyl-5-(methylsulfonyl)biphenyl-3-carboxamide] |  |  | < 100 | < 100
10 | Cc1ccc(-c2cc(C(=O)NCc3ccc(C)nc3)cc(C(=O)N3C4CCC3CC4)c2)cc1 [Compound 193] | < 100 | < 100 |  | 
11 | Cc1ccc(-c2cc(OCC3CNCCO3)cc(C(=O)N[C@H](C)c3ccc(C)nc3)c2)c(C#N)c1 (stereo partly drawn) [Compound 324, 2′-Cyano-4′-methyl-N—((R)-1-(6-methylpyridin-3-yl)ethyl)-5-(morpholin-2-ylmethoxy)biphenyl-3-carboxamide] |  |  | 100 to 500 | < 100
12 | Cc1ccc(CNC(=O)c2cc(-c3ccc(C)c(Cl)c3)cc(S(C)(=O)=O)c2)cn1 [Compound 120] | > 1000 | > 1000 |  | 
13 | Cc1ccc(-c2cc(C(=O)N[C@H](C)c3cnc(C)nc3)cc(C(=O)N3CCCC3)c2)nc1 [Compound 174] | < 100 | < 100 |  | 
14 | Cc1ccc(CNC(=O)c2cc(-c3ccc(Cl)c(Cl)c3)cc(S(C)(=O)=O)c2)cn1 [Compound 112] | > 1000 | > 1000 |  | 
15 | Cc1ccc(-c2cc(C(=O)NCc3cnc(C)nc3)cc(C(=O)N3CC(F)(F)C3)c2)cc1 [Compound 17, 5-(3,3-Difluoroazetidine-1-carbonyl)-4′-methyl-N-((2-methylpyrimidin-5-yl)methyl)biphenyl-3-carboxamide] | < 100 | < 100 |  | 
16 | COCCOc1cc(C(=O)NCc2ccc(C)nc2)cc(-c2ccc(C)cc2C#N)c1 [Compound 263] |  |  | 100 to 500 | < 100
17 | Cc1ncc(CNC(=O)c2cc(C(=O)N3CCCC3)cc(-c3ccc(Cl)cc3)c2)cn1 [Compound 40] | 100 to 500 | < 100 |  | 
18 | Cc1ccc(-c2cc(C(=O)N[C@H](C)c3ccc(C)nc3)cc(C(=O)N3CC[C@@H](O)C3)c2)nc1 [Compound 178] | < 100 | < 100 |  | 
19 | Cc1ccc(-c2cc(C(=O)N[C@H](CO)c3ccc(C(F)(F)F)nc3)cc(S(C)(=O)=O)c2)cc1 [Compound 226] |  |  | 100 to 500 | < 100
20 | Cc1ccc(-c2cc(S(=O)(=O)N3CCCC3)cc(C(=O)NCc3ccc(Cl)c(S(C)(=O)=O)c3)c2C)cc1 [Compound 66] | > 1000 | 100 to 500 |  | 
